Tested on: microparticles derived from the activation of the cell culture of HMEC1 human microvascular endothelial cells by TNF-α
Assay: Colorimetric assay of cellular microparticles by immobilisation of the complex on a microtiter plate (sensitivity study)
Format: binding
Conditions: complex immobilised on polyglutaraldehyde-activated PVC plate; anti-CD105 antibody, peroxidase secondary antibody, ABTS; FIG. 1
Method: a) Reagents: • Glutaraldehyde 25% • Ethanolamine 16.5 M • Bicarbonate buffer (Na Bic), at pH 9.5, 1 M, to be made only by titration of a solution of NaH2CO3 (pH 8.3) with a solution of Na2CO3 at pH 11, 6. • HEPES buffer, 10 mM pH 7.4; 0.15 M NaCl • (hBPMP/Zinc)-C6H2, 150 μM
b) Protocols: • Polymerisation of glutaraldehyde: • 50 ml of a solution of 2.5% glutaraldehyde is prepared in 0.1 M Na Bic, then the mixture is placed in a sealed vial at 37° C. for 2 hours. • Adsorption of polyglutaraldehyde on the surface of polyvinyl chloride: • A microtiter plate with 96 wells is used. • 100 μL of 2.5% glutaraldehyde is deposited in each well and left for 2 hours at 22° C. The polyglutaraldehyde is removed and the surface is rinsed 3 times with water. • Immobilisation of the complex [(Zn2)(BPMP-C6H2)(μ-OH)].(ClO4)2 • The complex in 0.1 M HEPES, pH 8.2 is immobilised on the surface of the polyvinyl chloride plate for 24 hours at +22° C.: • The free aldehyde groups are saturated with 0.3 M ethanolamine by incubating the surface with this solution for 2 hours at 22° C., then the ethanolamine is eliminated by washing with water and then washing 3 times in 10 mM HEPES at pH 7.4, 0.15 M NaCl. […]
The reading is performed by means of a spectrophotometer. […]

Substance: [μ-[6-amino-N-(3,5-bis((bis(2-pyridylmethyl)amino)methyl)-4-hydroxybenzyl)hexanamide]]-μ-hydroxo, dizinc, diperchlorate [Example 4]
- signal (initial velocity Vi of peroxidase substrate degradation) based on the quantity of microparticles: specific dose-response

Reference: patent US9453837B2, “Grafted dinuclear metal complexes, and use thereof as cellular microparticle sensors” (CENTRE NATIONAL DE LA RECHERCHE SCIENTIFIQUE (CNRS), priority 2011, dated 2016)
